# Source: patent US6416775B1, “Dry spreadable carrier for pesticides” (priority 1996, dated 2002)
# Test: Volatile materials in ventilating oven
# Assay type: physicochemical
# Conditions: after 2 hours at 141° F. (=60.5° C.) in a ventilating oven
# Method: The moisture content of raw material Celite 500 is 3.7 weight percent. So, the weight of raw material Celite 500 is close to the dry weight of Celite 500. According to the product specifications of Supragil MNS/90, Soprophor S/40-P, and Supragil WP, the moisture contents of these components are no higher than 2 weight percent. Also, samples of chlorpyrifos technical were tested for volatile materials in a ventilating oven. The weight loss after 2 hours at 141° F. (=60.5° C.) was only 0.6 weight percent. […] Therefore, the dry spreadable granular product as manufactured above contains approximately 2.0 weight percent chlorpyrifos.
structure (smiles),measurement,value
CCOP(=S)(OCC)Oc1nc(Cl)c(Cl)cc1Cl [Chlorpyrifos],weight loss,0.6 weight percent
